In general, IC50 refers to the point on the concentration scale where inhibition reaches its midpoint.

Among the data in patent US20240116985A1, “STAPLED PEPTIDES AND METHODS THEREOF” (priority 2020, published 2024) are IC50 values, retold here.

In assay [1] the target is T1, full-length beta-Catenin (Uniprot ID P35222) (Homo sapiens, UniProt P35222).
T1 construct: 10 nM full-length beta-Catenin (Uniprot ID P35222)
T1 sequence (P35222 1-781): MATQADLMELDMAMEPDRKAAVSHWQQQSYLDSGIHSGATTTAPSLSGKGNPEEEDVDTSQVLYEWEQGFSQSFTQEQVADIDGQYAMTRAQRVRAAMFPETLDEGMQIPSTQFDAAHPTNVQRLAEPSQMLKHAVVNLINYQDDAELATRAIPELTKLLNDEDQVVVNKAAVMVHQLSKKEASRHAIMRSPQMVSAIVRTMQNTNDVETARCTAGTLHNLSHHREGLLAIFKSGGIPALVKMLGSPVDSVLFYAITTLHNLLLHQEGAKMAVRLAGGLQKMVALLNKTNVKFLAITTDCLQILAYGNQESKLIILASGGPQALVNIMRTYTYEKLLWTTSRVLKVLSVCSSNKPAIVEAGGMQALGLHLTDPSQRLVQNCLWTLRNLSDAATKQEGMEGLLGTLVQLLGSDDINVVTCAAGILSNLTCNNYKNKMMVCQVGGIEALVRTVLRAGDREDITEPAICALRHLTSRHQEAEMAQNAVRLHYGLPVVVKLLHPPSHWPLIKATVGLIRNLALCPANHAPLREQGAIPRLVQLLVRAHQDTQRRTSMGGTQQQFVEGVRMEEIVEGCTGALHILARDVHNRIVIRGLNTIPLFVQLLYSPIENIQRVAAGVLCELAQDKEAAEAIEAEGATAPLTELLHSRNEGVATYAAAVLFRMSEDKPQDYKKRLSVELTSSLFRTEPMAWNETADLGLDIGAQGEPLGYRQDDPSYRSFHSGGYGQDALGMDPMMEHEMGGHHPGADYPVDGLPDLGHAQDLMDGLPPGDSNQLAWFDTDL
In words: Fluorescence polarization IC50 (beta-catenin / 5FAM-TCF4 10-53 competition). Type of assay: binding. To be noted: fluorescence polarization; read-out: beta-Catenin FP IC50.

For assay [2], the target named is T2, beta-catenin/TCF4 engagement (Homo sapiens, UniProt P35222).
T2 construct: expressed in transfected cells; host or cells: HEK293
T2 sequence (P35222 1-781): T1 sequence (P35222 1-781)
Kind of assay: Nano-BRET target engagement assay (B-cat-Halo & TCF4-Luc in HEK293 cells). Format: cell-based. The note with it: read-out: NanoBRET Abs IC50. A general note: Bioluminescence resonance energy transfer reports proximity on the nanometre scale.

A value given as a limit tells only on which side of the number the result lay.

With `CC(=O)N1CCC[C@]12CC=CCCCC1(CCCC=CCCCOC(=O)N3CC[C@@](C(=O)N[C@@H](Cc4ccccc4C(F)(F)F)C(=O)N[C@@H](Cc4csc5ccccc45)C(=O)N[C@H](CCC(N)=O)C(N)=O)(C3)NC(=O)[C@H](Cc3ccccc3)NC(=O)[C@H](Cc3ccccc3)NC(=O)[C@H](C)NC(=O)[C@H](C)NC(=O)[C@H](Cc3cccc(C(=O)O)c3)NC(=O)[C@H](CC(=O)O)NC1=O)NC(=O)[C@H](CC(C)(C)C)NC(=O)[C@H](CC(=O)O)NC2=O` (stereo partly drawn) [I-2093, Ac-PL3-Asp-Npg-B5-Asp-3COOHF-Ala-Ala-Phe-Phe-PyrS2-2F3MeF-BztA-dGln-NH2], the figures for the IC50 in assay [1] and in assay [2] were 0.043 µM and 5 µM, respectively.

Turning to `CC(=O)N1CCC[C@]12CC=CCCCC1(CCCC=CCCCOC(=O)N3CC[C@@](C(=O)N[C@@H](Cc4ccsc4)C(=O)N[C@@H](Cc4csc5ccccc45)C(=O)N[C@H](C)C(N)=O)(C3)NC(=O)[C@H](Cc3ccccc3)NC(=O)[C@H](Cc3ccccc3)NC(=O)[C@H](C)NC(=O)[C@H](C)NC(=O)[C@H](Cc3cccc(C(=O)O)c3)NC(=O)[C@H](CC(=O)O)NC1=O)NC(=O)[C@H](CC(C)(C)C)NC(=O)[C@H](CC(=O)O)NC2=O` (stereo partly drawn) [I-2094, Ac-PL3-Asp-Npg-B5-Asp-3COOHF-Ala-Ala-Phe-Phe-PyrS2-3Thi-BztA-dAla-NH2], the IC50 in assay [1] was 0.028 µM; in assay [2], 9.7 µM.

Consider `CC(=O)N1CCC[C@]12CC=CCCCC1(CCCC=CCCCOC(=O)N3CC[C@@](C(=O)N[C@@H](Cc4ccccc4C(F)(F)F)C(=O)N[C@@H](Cc4csc5ccccc45)C(=O)N[C@H](C)C(N)=O)(C3)NC(=O)[C@H](Cc3ccccc3)NC(=O)[C@H](Cc3ccccc3)NC(=O)[C@H](C)NC(=O)[C@H](C)NC(=O)[C@H](Cc3cccc(C(=O)O)c3)NC(=O)[C@H](CC(=O)O)NC1=O)NC(=O)[C@H](CC(C)(C)C)NC(=O)[C@H](CC(=O)O)NC2=O` (stereo partly drawn) [I-2095, Ac-PL3-Asp-Npg-B5-Asp-3COOHF-Ala-Ala-Phe-Phe-PyrS2-2F3MeF-BztA-dAla-NH2], for which the IC50 in assay [1] stood at 0.078 µM; in assay [2], 10.5 µM.

Consider `CC(=O)N1CCC[C@]12CC=CCCCC1(CCCC=CCCCOC(=O)N3CC[C@@](C(=O)N[C@@H](Cc4ccsc4)C(=O)N[C@@H](Cc4csc5ccccc45)C(=O)N[C@@H](C)C(N)=O)(C3)NC(=O)[C@H](CC(C)C)NC(=O)[C@H](Cc3ccccc3)NC(=O)[C@@H](C)NC(=O)[C@H](C)NC(=O)[C@H](Cc3cccc(C(=O)O)c3)NC(=O)[C@H](CC(=O)O)NC1=O)NC(=O)[C@H](CC(C)(C)C)NC(=O)[C@H](CC(=O)O)NC2=O` (stereo partly drawn) [I-2096, Ac-PL3-Asp-Npg-B5-Asp-3COOHF-Ala-dAla-Phe-Leu-PyrS2-3Thi-BztA-Ala-NH2], for which the IC50 in assay [1] is 0.079 µM; in assay [2] it was over 20 µM.

In the case of `CC(=O)N1CCC[C@]12CC=CCCCC1(CCCC=CCCCOC(=O)N3CC[C@@](C(=O)N[C@@H](Cc4ccsc4)C(=O)N[C@@H](Cc4csc5ccccc45)C(=O)N[C@@H](C)C(N)=O)(C3)NC(=O)[C@H](CC(C)C)NC(=O)[C@H](Cc3ccccc3)NC(=O)[C@@H](C)NC(=O)[C@H](C)NC(=O)[C@H](Cc3cccc(C(=O)O)c3)NC(=O)[C@H](CC(=O)O)NC1=O)NC(=O)[C@H](CC(C)(C)C)NC(=O)[C@H](CC(=O)O)NC2=O` (stereo partly drawn) [I-2097, Ac-PL3-Asp-Npg-B5-Asp-3COOHF-Ala-dAla-Phe-Leu-PyrS2-3Thi-BztA-Ala-NH2], the IC50 in assay [1] was 0.023 µM; in assay [2] it was 22.3 µM.

For `CC(=O)N1CCC[C@]12CC=CCCCC1(CCCC=CCCCOC(=O)N3CC[C@@](C(=O)N[C@@H](Cc4ccccc4C(F)(F)F)C(=O)N[C@@H](Cc4csc5ccccc45)C(=O)N[C@@H](C)C(N)=O)(C3)NC(=O)[C@H](CC(C)C)NC(=O)[C@H](Cc3ccccc3)NC(=O)[C@@H](C)NC(=O)[C@H](C)NC(=O)[C@H](Cc3cccc(C(=O)O)c3)NC(=O)[C@H](CC(=O)O)NC1=O)NC(=O)[C@H](CC(C)(C)C)NC(=O)[C@H](CC(=O)O)NC2=O` (stereo partly drawn) [I-2098, Ac-PL3-Asp-Npg-B5-Asp-3COOHF-Ala-dAla-Phe-Leu-PyrS2-2F3MeF-BztA-Ala-NH2], the figures for the IC50 in assay [1] and in assay [2] were 0.26 µM and over 20 µM, respectively.

In the case of `CC(=O)N1CCC[C@]12CC=CCCCC1(CCCC=CCCCOC(=O)N3CC[C@@](C(=O)N[C@@H](Cc4ccsc4)C(=O)N[C@@H](Cc4csc5ccccc45)C(=O)N[C@H](C)C(N)=O)(C3)NC(=O)[C@H](CC(C)C)NC(=O)[C@H](Cc3ccccc3)NC(=O)[C@@H](C)NC(=O)[C@H](C)NC(=O)[C@H](Cc3cccc(C(=O)O)c3)NC(=O)[C@H](CC(=O)O)NC1=O)NC(=O)[C@H](CC(C)(C)C)NC(=O)[C@H](CC(=O)O)NC2=O` (stereo partly drawn) [I-2100, Ac-PL3-Asp-Npg-B5-Asp-3COOHF-Ala-dAla-Phe-Leu-PyrS2-3Thi-BztA-dAla-NH2], the IC50 is 0.086 µM in assay [1] and over 20 µM in assay [2].

Regarding `CC(=O)N1CCC[C@]12CC=CCCCC1(CCCC=CCCCOC(=O)N3CC[C@@](C(=O)N[C@@H](Cc4ccccc4)C(=O)N[C@@H](Cc4csc5ccccc45)C(=O)N[C@@H](CCO)C(N)=O)(C3)NC(=O)[C@H](CCCCNC(C)C)NC(=O)[C@H](Cc3ccccc3)NC(=O)[C@H](C)NC(=O)[C@H](CCCCNC(C)C)NC(=O)[C@H](CCC(N)=O)NC(=O)[C@H](CC(=O)O)NC1=O)NC(=O)[C@H](CC1CCCCC1)NC(=O)[C@H](CC(N)=O)NC2=O` (stereo partly drawn) [I-2102, Ac-PL3-Asn-Cha-B5-Asp-Gln-iPrLys-Ala-Phe-iPrLys-PyrS2-Phe-BztA-Hse-NH2], the IC50 is 0.273 µM in assay [1] and over 20 µM in assay [2].

Take `CC(=O)N1CCC[C@]12CC=CCCCC1(CCCC=CCCCOC(=O)N3CC[C@@](C(=O)N[C@@H](Cc4ccccc4)C(=O)N[C@@H](Cc4csc5ccccc45)C(=O)N[C@@H](Cc4c[nH]cn4)C(N)=O)(C3)NC(=O)[C@H](CC(N)=O)NC(=O)[C@H](Cc3ccccc3)NC(=O)[C@H](C)NC(=O)[C@H](CCCCNC(C)C)NC(=O)[C@H](CCC(N)=O)NC(=O)[C@H](CC(=O)O)NC1=O)NC(=O)[C@H](CC1CCCCC1)NC(=O)[C@H](CC(N)=O)NC2=O` (stereo partly drawn) [I-2109, Ac-PL3-Asn-Cha-B5-Asp-Gln-iPrLys-Ala-Phe-Asn-PyrS2-Phe-BztA-His-NH2]: the IC50 is 0.136 µM in assay [1] and over 20 µM in assay [2].

Turning to `CC(=O)N1CCC[C@]12CC=CCCCC1(CCCC=CCCCOC(=O)N3CC[C@@](C(=O)N[C@@H](Cc4ccccc4)C(=O)N[C@@H](Cc4csc5ccccc45)C(=O)N[C@@H](CCCCN)C(N)=O)(C3)NC(=O)[C@H](CC(N)=O)NC(=O)[C@H](Cc3ccccc3)NC(=O)[C@H](C)NC(=O)[C@H](CCCCNC(C)C)NC(=O)[C@H](CCC(N)=O)NC(=O)[C@H](CC(=O)O)NC1=O)NC(=O)[C@H](CC1CCCCC1)NC(=O)[C@H](CC(N)=O)NC2=O` (stereo partly drawn) [I-2110, Ac-PL3-Asn-Cha-B5-Asp-Gln-iPrLys-Ala-Phe-Asn-PyrS2-Phe-BztA-Lys-NH2], the IC50 in assay [1] was 0.088 µM; in assay [2], over 20 µM.

Turning to `CC(=O)N1CCC[C@]12CC=CCCCC1(CCCC=CCCCOC(=O)N3CC[C@@](C(=O)N[C@@H](Cc4ccccc4)C(=O)N[C@@H](Cc4csc5ccccc45)C(=O)N[C@@H](CC(N)=O)C(N)=O)(C3)NC(=O)[C@H](CC(N)=O)NC(=O)[C@H](Cc3ccccc3)NC(=O)[C@H](C)NC(=O)[C@H](CCCCNC(C)C)NC(=O)[C@H](CCC(N)=O)NC(=O)[C@H](CC(=O)O)NC1=O)NC(=O)[C@H](CC1CCCCC1)NC(=O)[C@H](CC(N)=O)NC2=O` (stereo partly drawn) [I-2111, Ac-PL3-Asn-Cha-B5-Asp-Gln-iPrLys-Ala-Phe-Asn-PyrS2-Phe-BztA-Asn-NH2], the IC50 in assay [1] is 0.18 µM; in assay [2] it was over 20 µM.
